Assay results published in patent US9340622B2, “Synthetic immunogen useful for generating long lasting immunity and protection against pathogens” (priority 2010, dated 2016).
Where two headings read alike, the source gives them in different places. Ends that are not written are not given here.

Legend:
CD4 T cells = test: Intracellular staining for IFN-γ in CD4 T cells; type: cell-based; conditions: splenocytes of mice immunized with lipopeptide containing SEQ ID No. 1, cultured 48 h, restimulated 6 h, FIG. 6
Protocol: FIG. 6. CD4 T cells from mice immunized with immunogen containing SEQ ID No. 1 produced IFN-γ on in vitro peptide restimulation. Mice were immunized with lipopeptide containing SEQ ID No. 1. Splenocytes from the immunized mice were cultured with A) medium; B) Pam2Cys; C) non-lipidated peptide (SEQ ID No. 1); D) lipopeptide (containing SEQ ID No. 1) for 48 h. Cells were restimulated for 6 h and stained for surface CD4 and intracellular for IFN-γ. Representative flow cytometry contours depict IFN-γ producing CD4 T cells and numbers indicate their percentage.
Mice were immunized with the developed immunogenic lipopeptides (20 nmol/animal). Twenty-one days later, a booster dose (10 nmol) was administered. Animals were sacrificed 45 days post booster immunization.
Lymphocytes (2×10^6 cells/ml) were cultured with peptides in triplicates in 96 w plate for 48 h. Cells were pooled and washed twice with wash buffer (PBS containing FBS-1%). Cells were re-stimulated with PMA (50 ng/ml) and ionomycin (1 μg/ml) for 6 h/37° C. and in the last 4 h brefeldin A (10 μg/ml) was added in cultures. After 6 h of activation, cells, were washed twice with staining buffer (BSA-1%, NaN3-0.01% in PBS). […] Finally, cells were fixed in parafolmaldehyde-1% and acquired on FACS Aria II and data was analyzed by FACS DIVA (BD Biosciences, San Jose, Calif.).

M. tuberculosis H37Rv [1] = test system: M. tuberculosis H37Rv; set-up: species or system mice; conditions: mouse, in vivo
[2] = test system: human peripheral blood mononuclear cells; test: T cell proliferation of human PBMCs (3H-thymidine incorporation); type: cell-based; conditions: compared to non-lipidated peptide counterparts, FIG. 9
Bone marrow derived DCs = test: Activation and MHC markers on bone marrow derived DCs; type: cell-based, C57BL/6 mice; conditions: BMDCs day 7, treated 12 hrs
Protocol: FIG. 4. Lipidated peptides [immunogens] enhance DC maturation. (A) BALB/c mice were immunized with lipidated peptides [immunogen] and free peptides. Total splenocytes were recovered and in vitro stimulated with the lipidated and free peptides. After 48 hrs of incubation, they were harvested and stained for DC population (CD11c^+/CD40^+). CD11c^+/CD40^+ population indicates mature DCs. Lipidated immunogen constructs were able to induce DC maturation compared to their unlipidated counterparts. (B) Bone marrow derived DCs from C57BL/6 mice were cultured using standard protocol. On day 7 of culture they were treated with free or lipidated peptides for 12 hrs and then the cells were harvested and stained for activation markers. […] (C) On day 7 of culture, bone marrow derived DCs were treated with free or lipidated peptides for 12 hrs. Later on, the cells were harvested and stained for CD74 (immature MHC) and IA^b (mature MHC).

M. tuberculosis H37Rv [3] = test system: M. tuberculosis H37Rv; set-up: species or system Duncan-Hartley guinea pigs; conditions: guinea pig, in vivo
[4] = compared to free peptide, FIG. 4C

Compound	production of IFN-γ in CD4 T cells (CD4 T cells)	Mycobacterial load in lungs (CFU) (M. tuberculosis H37Rv [1])	proliferation of human PBMCs from sputum positive tuberculosis patient [2]	expression of CD74 (immature MHC) (Bone marrow derived DCs; [4])	expression of IA^b (mature MHC) (Bone marrow derived DCs; [4])	expression of CD80, CD86, CD40 (Bone marrow derived DCs; compared to p91 treated cells, FIG. 4B)	Mycobacterial load in lungs (CFU) (M. tuberculosis H37Rv [3])
CCCCCCCCCCCCCCCC(=O)OCC(CSC[C@H](N)C(=O)O)OC(=O)CCCCCCCCCCCCCCC (stereo partly drawn) [Pam2Cys, S-[2,3-bis(palmitoyloxy)propyl]cysteine, reference compound]	did not elicit production of IFN-γ						
L91: immunogen wherein X1=SEQ ID. No. 1 and X2=0; peptide linked via two serines to Pam2Cys (SEFAYGSFVRTVSLPVGADE; also: linked via two serines to Pam2Cys, end not given here; listed as Mycobacterium tuberculosis)	predominant production of IFN-γ	restricted the growth of mycobacterium significantly	enhanced the proliferation	decrease in expression	enhanced expression	enhanced expression	significantly lower bacterial load in lungs
